Converted amounts (≈) assume the structure as drawn. Read-outs that look alike come from different tables or passages of the source.
What was measured:
B. longum MMX 3968 = assay: MIC/MBC testing (Example 5); assay type: cell-based
Lactobacillus jensenii [1] = assay: Broth microdilution MIC, anaerobic bacteria (Example 4); assay type: cell-based; details: isolate MMX 4149
Bifidobacterium longum [2] = assay: as above; assay type: cell-based; details: isolate MMX 3968
Bifidobacterium bifidum [3] = assay: Broth microdilution MIC, anaerobic bacteria (Example 1); assay type: cell-based; details: Bifidobacterium bifidum; Example 1; isolate MMX 3965; read-out: MIC
Clostridium difficile [4] = assay: Broth microdilution MIC, anaerobic bacteria (Example 4); assay type: cell-based; details: Clostridioides difficile
B. fragilis ATCC 25285 [5] = details: Example 5 control agents table; cited from earlier work
Bacteroides fragilis [6] = assay: Broth microdilution MIC, anaerobic bacteria (Example 1); assay type: cell-based; details: Bacteroides fragilis, ATCC5285
Lactobacillus jensenii [7] = assay: as above; assay type: cell-based; details: Lactobacillus jensenii; Example 1; isolate MMX 4149; read-out: MIC
B. fragilis ATCC 25285 [8] = assay: MIC/MBC testing (Example 5); assay type: cell-based; details: Bacteroides fragilis, ATCC25285
Bifidobacterium bifidum [9] = assay: Broth microdilution MIC, anaerobic bacteria (Example 4); assay type: cell-based; details: isolate MMX 3965
Bifidobacterium longum [10] = assay: Broth microdilution MIC, anaerobic bacteria (Example 1); assay type: cell-based; details: Bifidobacterium longum; Example 1; isolate MMX 3968; read-out: MIC
B. bifidum MMX 3965 = assay: MIC/MBC testing (Example 5); assay type: cell-based
C. difficile = assay: MIC/MBC testing (Example 5); assay type: cell-based; details: for MBC:MIC: ratios of 1-4 are indicative of bactericidal activity
Lactobacillus crispatus = assay: Broth microdilution MIC, anaerobic bacteria (Example 1); assay type: cell-based; details: Lactobacillus crispatus; Example 1; isolate MMX 4147; read-out: MIC
Clostridium difficile [11] = assay: as above; assay type: cell-based; details: Clostridioides difficile
[12] = system: evaluated yeast and fungal isolates; assay: Broth microdilution MIC, summary (Example 4); assay type: cell-based
[13] = system: Staphylococcus aureus (MRSA); assay: microbe, parasite or virus in culture; assay type: cell-based
[14] = system: Staphylococcus aureus (MSSA); assay: Broth microdilution MIC, aerobic bacteria (Example 4); assay type: cell-based; details: ATCC 29213 / MSSA
E. faecalis MMX 848 = assay: MIC/MBC testing (Example 5); assay type: cell-based
Streptococcus pneumoniae = assay: Broth microdilution MIC, aerobic bacteria (Example 4); assay type: cell-based; details: ATCC49619
strains tested = assay: MIC/MBC testing, summary (Example 5); assay type: cell-based
[15] = system: Klebsiella pneumoniae (KPC-2); assay: microbe, parasite or virus in culture; assay type: cell-based
E. coli ATCC 25922 = assay: MIC/MBC testing (Example 5); assay type: cell-based; details: Escherichia coli, ATCC25922
Acinetobacter baumannii = assay: Broth microdilution MIC, aerobic bacteria (Example 4); assay type: cell-based
Pseudomonas aeruginosa = assay: as above; assay type: cell-based
Escherichia coli = assay: as above; assay type: cell-based; details: ATCC25922
Aspergillus fumigatus = assay: Broth microdilution MIC, fungi (Example 4); assay type: cell-based; details: Aspergillus fumigatus, Example 4, isolate MMX 5280 (MYA-3626)
[16] = system: Enterococcus faecalis (VSE); assay: Broth microdilution MIC, aerobic bacteria (Example 4); assay type: cell-based; details: ATCC29212
S. pyogenes MMX 404 = assay: MIC/MBC testing (Example 5); assay type: cell-based
S. aureus ATCC 29213 = assay: MIC/MBC testing (Example 5); assay type: cell-based
[17] = system: Enterococcus faecalis (VRE); assay: microbe, parasite or virus in culture; assay type: cell-based
E. faecalis ATCC 29212 = assay: MIC/MBC testing (Example 5); assay type: cell-based
Bacteroides fragilis [18] = assay: Broth microdilution MIC, anaerobic bacteria (Example 4); assay type: cell-based; details: ATCC25285, isolate MMX 123 (ATCC 25285)
Candida parapsilosis = assay: Broth microdilution MIC, fungi (Example 4); assay type: cell-based; details: for concentration at which 50% inhibition observed relative to the growth control: value in parenthesis; for MIC: Lodderomyces parapsilosis
gram-negative aerobes = assay: Broth microdilution MIC, summary (Example 4); assay type: cell-based; details: tested alone
S. aureus MMX 757 = assay: MIC/MBC testing (Example 5); assay type: cell-based
Streptococcus pyogenes = assay: Broth microdilution MIC, aerobic bacteria (Example 4); assay type: cell-based
[19] = Compound precipitation in uninoculated solubility controls (Example 4); assay type: physicochemical; design: key to precipitation observed (type): NA: not applicable (no precipitation observed); TRP: trace precipitate; DCP: distinct precipitate
Experimental: Un-inoculated solubility control plates for each test media and drug were incubated in parallel with test plates and observed for evidence of drug precipitation. MICs were read where visible growth of the organism was inhibited.

S. pneumoniae ATCC 49619 = assay: MIC/MBC testing (Example 5); assay type: cell-based; details: Streptococcus pneumoniae, ATCC49619
[20] = ATCC700057, Example 4, isolate MMX 4381 (ATCC 700057)
[21] = Clostridioides difficile, ATCC700057, Example 5, ATCC 700057
[22] = Bifidobacterium longum, MMX3968
[23] = ratios of 1-4 are indicative of bactericidal activity
[24] = Staphylococcus aureus, ATCC29213
[25] = Bifidobacterium bifidum, MMX3965
[26] = Enterococcus faecalis, ATCC29212
[27] = Clostridioides difficile, Example 5, MMX 8330
[28] = Clostridioides difficile, Example 5, MMX 8333

Molecule `Cc1ncc([N+](=O)[O-])n1CCO` [Metronidazole] has an MIC (B. longum MMX 3968; Bifidobacterium longum, MMX3968, Example 5, read-out: MIC) of 8 µg/mL (≈ 46.7 µM), an MIC (Lactobacillus jensenii [1]) of over 32 µg/mL and an MIC (Bifidobacterium longum [2]) of 8 µg/mL (≈ 46.7 µM). It also gave an MIC (Bifidobacterium bifidum [3]) of 1 µg/mL (≈ 5.84 µM), an MIC (Clostridium difficile [4]; [20]) of 0.25 µg/mL (≈ 1.46 µM) and an MIC (Clostridium difficile [4]; Example 4, isolate MMX 8330) of 0.25 µg/mL (≈ 1.46 µM). The MIC (Clostridium difficile [4]; Example 4, isolate MMX 8333) was 2 µg/mL (≈ 11.7 µM), the “CLSI QC range (MIC)” value (B. fragilis ATCC 25285 [5]) was “(0.25-2)^1 μg/mL” and the MIC (Bacteroides fragilis [6]) was 0.5 µg/mL (≈ 2.92 µM). It also gave an MIC (Lactobacillus jensenii [7]) of over 32 µg/mL, an MIC (B. fragilis ATCC 25285 [8]; Example 5, read-out: MIC) of 0.5 µg/mL (≈ 2.92 µM) and an MIC (Bifidobacterium bifidum [9]) of 2 µg/mL (≈ 11.7 µM). For the same molecule, the MIC (Bifidobacterium longum [10]) was 8 µg/mL (≈ 46.7 µM), the MIC (B. bifidum MMX 3965; Bifidobacterium bifidum, MMX3965, Example 5, read-out: MIC) was 1 µg/mL (≈ 5.84 µM) and the MIC (C. difficile; [21]) was 0.12 µg/mL (≈ 0.701 µM). The MIC (C. difficile; Clostridioides difficile, Example 5, MMX 8330, read-out: MIC) was 0.5 µg/mL (≈ 2.92 µM), the MIC (C. difficile; Example 5, MMX 8333) was 0.5 µg/mL (≈ 2.92 µM) and the MIC (Lactobacillus crispatus) was over 32 µg/mL. The MIC (Clostridium difficile [11]; ATCC00057, Example 1, isolate MMX 4381 (ATCC 00057)) was 0.12 µg/mL (≈ 0.701 µM) and the MIC (Clostridium difficile [11]; Example 1, isolate MMX 8330, read-out: MIC) was 0.12 µg/mL (≈ 0.701 µM).

With `CCCCCc1cc(O)c2c(c1)OC(C)(C)[C@@H]1CCC(C)=C[C@@H]21` [THC, tetrahydrocannabinol] the “activity against yeast and fungal isolates” value [12] was “Neither THC nor CBD were active”, the MBC (B. longum MMX 3968; [22]) was over 256 µg/mL and the MIC (B. longum MMX 3968; [22]) was 32 µg/mL (≈ 102 µM). The “MBC:MIC” value (B. longum MMX 3968; [23]) was over 8, the MIC [13] was 2 µg/mL (≈ 6.36 µM) and the MIC (Lactobacillus jensenii [1]) was 128 µg/mL (≈ 407 µM). It also gave an MIC [14] of 2 µg/mL (≈ 6.36 µM), an MBC (E. faecalis MMX 848; Enterococcus faecalis, MMX848) of 4 µg/mL (≈ 12.7 µM) and an MIC (E. faecalis MMX 848; Enterococcus faecalis, MMX848) of 2 µg/mL (≈ 6.36 µM). For the same molecule, the “MBC:MIC” value (E. faecalis MMX 848; [23]) was 2, the MIC (Bifidobacterium longum [2]) was 32 µg/mL (≈ 102 µM) and the MIC (Streptococcus pneumoniae) was 1 µg/mL (≈ 3.18 µM). For the same molecule, the “biocidal activity against the strains tested” value (strains tested) was “overall biocidal”, the MIC (Clostridium difficile [4]; [20]) was 32 µg/mL (≈ 102 µM) and the MIC (Clostridium difficile [4]; Example 4, isolate MMX 8330) was 32 µg/mL (≈ 102 µM). The MIC (Clostridium difficile [4]; Example 4, isolate MMX 8333) was 32 µg/mL (≈ 102 µM), the MIC [15] was over 128 µg/mL and the MIC (E. coli ATCC 25922) was over 256 µg/mL. For the same molecule, the MIC (Acinetobacter baumannii) was over 128 µg/mL, the MIC (Pseudomonas aeruginosa) was over 128 µg/mL and the MIC (Escherichia coli) was over 128 µg/mL. For the same molecule, the MIC (B. fragilis ATCC 25285 [8]) was over 256 µg/mL, the MIC (Aspergillus fumigatus; 24 hr, read-out: MIC at 24 hr) was over 128 µg/mL and the MIC (Aspergillus fumigatus; 48 hr, read-out: MIC at 48 hr) was over 128 µg/mL. The MIC [16] was 2 µg/mL (≈ 6.36 µM), the MBC (S. pyogenes MMX 404; Streptococcus pyogenes, MMX404) was 32 µg/mL (≈ 102 µM) and the MIC (S. pyogenes MMX 404; Streptococcus pyogenes, MMX404) was 32 µg/mL (≈ 102 µM). For the same molecule, the “MBC:MIC” value (S. pyogenes MMX 404; [23]) was 1, the MIC (Bifidobacterium bifidum [9]) was 16 µg/mL (≈ 50.9 µM) and the MBC (S. aureus ATCC 29213; [24]) was 4 µg/mL (≈ 12.7 µM). For the same molecule, the MIC (S. aureus ATCC 29213; [24]) was 4 µg/mL (≈ 12.7 µM), the “MBC:MIC” value (S. aureus ATCC 29213; [23]) was 1 and the MBC (B. bifidum MMX 3965; [25]) was 128 µg/mL (≈ 407 µM). For the same molecule, the MIC (B. bifidum MMX 3965; [25]) was 32 µg/mL (≈ 102 µM), the “MBC:MIC” value (B. bifidum MMX 3965; [23]) was 4 and the MIC [17] was 2 µg/mL (≈ 6.36 µM). For the same molecule, the MBC (E. faecalis ATCC 29212; [26]) was 8 µg/mL (≈ 25.4 µM), the MIC (E. faecalis ATCC 29212; [26]) was 2 µg/mL (≈ 6.36 µM) and the “MBC:MIC” value (E. faecalis ATCC 29212; [23]) was 4. The MIC (Bacteroides fragilis [18]) was over 128 µg/mL, the “concentration at which 50% inhibition observed relative to the growth control” value (Candida parapsilosis; Example 4, 24 hr) was 4 µg/mL and the “concentration at which 50% inhibition observed relative to the growth control” value (Candida parapsilosis; Example 4, 48 hr) was 4 µg/mL. The MIC (Candida parapsilosis; ATCC22019, 24 h, read-out: MIC at 24 hr) was over 128 µg/mL, the MIC (Candida parapsilosis; ATCC22019, Example 4, 48 hr, isolate MMX 2323 (ATCC 22019), read-out: MIC at 48 hr) was over 128 µg/mL and the “activity against Gram-negative aerobes” value (gram-negative aerobes) was “inactive”. For the same molecule, the MBC (S. aureus MMX 757; Staphylococcus aureus, MMX757) was 32 µg/mL (≈ 102 µM), the MIC (S. aureus MMX 757; Staphylococcus aureus, MMX757) was 4 µg/mL (≈ 12.7 µM) and the “MBC:MIC” value (S. aureus MMX 757; [23]) was 8. For the same molecule, the MIC (Streptococcus pyogenes) was 16 µg/mL (≈ 50.9 µM), the “MBC:MIC” value (C. difficile; ATCC 700057) was 2 and the MBC (C. difficile; [21]) was 128 µg/mL (≈ 407 µM). The MIC (C. difficile; [21]) was 64 µg/mL (≈ 204 µM), the MBC (C. difficile; [27]) was 64 µg/mL (≈ 204 µM) and the MIC (C. difficile; [27]) was 64 µg/mL (≈ 204 µM). For the same molecule, the MBC (C. difficile; [28]) was 128 µg/mL (≈ 407 µM), the MIC (C. difficile; [28]) was 64 µg/mL (≈ 204 µM) and the “MBC:MIC” value (C. difficile; MMX 8330) was 1. The “MBC:MIC” value (C. difficile; MMX 8333) was 2, the “concentration at which precipitation was observed” value ([19]; Brucella Broth) was 128 µg/mL and the “precipitation observed (type)” value ([19]; Brucella Broth) was “DCP”. For the same molecule, the “precipitation observed (type)” value ([19]; MHB II) was “DCP”, the “precipitation observed (type)” value ([19]; MHB II with Blood) was “none” and the “precipitation observed (type)” value ([19]; RPMI) was “TRP”. The MIC (S. pneumoniae ATCC 49619) was 1 µg/mL (≈ 3.18 µM).
